Measured values as given in US12186314B2, “Compositions and methods for treatment, amelioration, and prevention of anesthesia-induced hypothermia” (ARIZONA BOARD OF REGENTS ON BEHALF OF THE UNIVERSITY OF …, priority 2015, dated 2025).
Entries after “also recorded” stand apart in the source; their conditions may differ. Where two headings read alike, the source gives them in different places.

What was measured:
TRPV1 [1] = biological target: T1, TRPV1 (Rattus norvegicus, UniProt O35433); set-up: from tissue; host or cells: whole live non-anesthetized rats; settings: non-anesthetized (unanesthetized) rats, cited from earlier work
TRPV1 [2] = biological target: T2, TRPV1 (Homo sapiens, UniProt Q8NER1); settings: non-anesthetized humans; cited from earlier work
T2 construct: host or cells: human subjects (clinical observations)

TRPV1 [3] = biological target: T1, TRPV1; test: isoflurane anesthesia-induced hypothermia in adult rats, various TRPV1 antagonists, rectal temperature; format: in vivo; set-up: from tissue; host or cells: whole live non-anesthetized rats; settings: isoflurane 2 L/min, 5% induction, 2.5% maintenance, 20 minutes post anesthesia-induction
Procedure: After acclimatizing to the testing chamber and obtaining baseline core body temperature, adult rats were anesthetized with isoflurane (2 L/min, 5% induction, 2.5% maintenance) and the anesthetized animals were injected with vehicle or various TRPV1 antagonists at doses described and rectal temperature was monitored for 20 minutes post anesthesia-induction.

TRPV1 [4] = biological target: T1, TRPV1; settings: 24 hours post surgery
TRPV1 [5] = biological target: T1, TRPV1; test: volatile (isoflurane) anesthesia-induced hypothermia in adult rats, rectal core body temperature; format: in vivo; set-up: from tissue; host or cells: whole live non-anesthetized rats; settings: isoflurane 5% induction, 2.5% maintenance, 0.01, 0.1 and 1 mg/kg, 5 min intervals, 0.1 and 1 mg/kg significant at all time points (p<0.01)
Procedure: Briefly, after obtaining baseline core body temperature, lightly restrained rats were anesthetized with isoflurane (5% induction, 2.5% maintenance), the effect of varying dose of AMG 517 (0.01, 0.1 and 1 mg/kg) and control (vehicle) on rectally-measured temperature (core body temperature) was measured at 5 min intervals. At 20 minutes, a warming blanket was used to prevent further temperature drop in the control (vehicle) group. Vehicle treated rats developed hypothermia after exposure to anesthesia.

TRPV1 [6] = biological target: T1, TRPV1; test: isoflurane anesthesia-induced hypothermia in neonatal rats, core body temperature; format: in vivo; set-up: from tissue; host or cells: whole live non-anesthetized rats; settings: neonatal rats (age 10d), 1 mg/kg i.v. (at 20 min time point) and 2 mg/kg (all time points)
Procedure: Briefly, after gently separating neonatal male or female rats (age 10d) from the littermates, the animals were exposed to isoflurane anesthesia (5% induction, 2.5% maintenance), and then were injected with either vehicle or AMG 517 (1-2 mg/kg, i.v.) and core body temperature was measured at 5 minute intervals.

TRPV1 [7] = biological target: T1, TRPV1; test: core body temperature during isoflurane anesthesia and in the post-anesthesia period; format: in vivo; set-up: from tissue; host or cells: whole live non-anesthetized rats; settings: rats
Procedure: After taking baseline core body temperature, rats were anesthetized with isoflurane and quickly injected with either vehicle or 0.1 mg/kg of AMG 517 via a tail vein injection. The core body temperature was measured every 5 minutes during the duration of anesthesia (45 min) and 30 minutes after that (n=8 per group) (see, FIG. 3).

TRPV1 [8] = biological target: T1, TRPV1; test: ketamine-induced hypothermia in rats, core body temperature; format: in vivo; set-up: from tissue; host or cells: whole live non-anesthetized rats; settings: ketamine 100 mg/kg, 0.01-1 mg/kg tail vein
Procedure: This example describes the use of AMG 517 to reverse hypothermia induced by a non-volatile anesthetic (ketamine) (FIG. 5). After taking baseline core body temperature, rats were anesthetized with ketamine (100 mg/kg) and quickly injected with either vehicle or 0.01-1 mg/kg of AMG 517 via a tail vein injection. The core body temperature was measured every 5 minutes for 20 minutes post ketamine injection (n=8 per group).

T2 sequence (Q8NER1 whole entry): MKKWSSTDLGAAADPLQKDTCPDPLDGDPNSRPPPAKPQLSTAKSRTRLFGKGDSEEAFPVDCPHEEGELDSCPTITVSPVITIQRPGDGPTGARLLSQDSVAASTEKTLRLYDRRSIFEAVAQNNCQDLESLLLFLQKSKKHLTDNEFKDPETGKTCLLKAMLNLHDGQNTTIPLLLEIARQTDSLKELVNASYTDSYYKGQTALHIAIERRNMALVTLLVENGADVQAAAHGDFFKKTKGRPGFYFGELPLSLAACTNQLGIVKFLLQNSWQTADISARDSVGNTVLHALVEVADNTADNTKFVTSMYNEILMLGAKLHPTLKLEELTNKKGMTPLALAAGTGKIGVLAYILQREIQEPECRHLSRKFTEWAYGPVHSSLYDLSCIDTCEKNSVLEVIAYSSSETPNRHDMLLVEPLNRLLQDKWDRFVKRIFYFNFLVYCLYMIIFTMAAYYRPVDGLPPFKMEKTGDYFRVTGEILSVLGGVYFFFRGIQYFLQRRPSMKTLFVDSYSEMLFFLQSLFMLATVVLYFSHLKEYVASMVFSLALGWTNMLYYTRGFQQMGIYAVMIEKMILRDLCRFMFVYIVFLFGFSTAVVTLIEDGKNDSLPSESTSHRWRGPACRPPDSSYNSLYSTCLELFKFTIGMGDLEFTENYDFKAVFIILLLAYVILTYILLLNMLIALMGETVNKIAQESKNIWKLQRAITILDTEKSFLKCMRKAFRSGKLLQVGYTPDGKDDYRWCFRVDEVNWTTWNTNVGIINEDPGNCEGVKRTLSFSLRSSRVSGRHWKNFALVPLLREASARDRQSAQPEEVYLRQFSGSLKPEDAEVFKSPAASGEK
T1 sequence (O35433 whole entry): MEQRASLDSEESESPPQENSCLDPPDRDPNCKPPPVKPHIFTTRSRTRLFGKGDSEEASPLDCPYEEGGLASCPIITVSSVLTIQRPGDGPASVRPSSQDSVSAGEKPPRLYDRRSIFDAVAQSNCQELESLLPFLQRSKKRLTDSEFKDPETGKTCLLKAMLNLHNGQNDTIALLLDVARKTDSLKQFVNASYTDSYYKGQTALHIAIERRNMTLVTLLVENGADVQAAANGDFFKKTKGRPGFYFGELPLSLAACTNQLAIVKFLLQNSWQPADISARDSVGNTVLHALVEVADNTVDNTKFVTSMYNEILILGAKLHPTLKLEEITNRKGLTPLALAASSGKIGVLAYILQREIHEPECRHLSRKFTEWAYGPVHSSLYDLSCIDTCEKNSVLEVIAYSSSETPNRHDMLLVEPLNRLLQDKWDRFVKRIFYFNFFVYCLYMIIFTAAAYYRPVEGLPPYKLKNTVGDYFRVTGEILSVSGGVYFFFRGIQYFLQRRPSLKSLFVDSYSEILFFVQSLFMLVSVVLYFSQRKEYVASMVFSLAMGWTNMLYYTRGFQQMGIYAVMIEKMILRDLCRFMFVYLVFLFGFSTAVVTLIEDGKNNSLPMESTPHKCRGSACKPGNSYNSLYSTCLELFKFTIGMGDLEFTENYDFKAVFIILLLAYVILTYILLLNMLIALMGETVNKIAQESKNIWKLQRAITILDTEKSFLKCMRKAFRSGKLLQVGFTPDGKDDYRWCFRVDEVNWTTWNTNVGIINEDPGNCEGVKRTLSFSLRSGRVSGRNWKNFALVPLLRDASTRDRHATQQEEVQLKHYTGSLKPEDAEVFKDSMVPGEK

Row | Structure (SMILES) | ability to cause hyperthermia (TRPV1 [1]) | ability to cause hyperthermia (TRPV1 [2]) | reversal/prevention of anesthesia-induced hypothermia (rectal temperature) (TRPV1 [3]) | other results
1 | Cc1cc2c(NC(=O)N[C@@H]3CC(CF)(CF)Oc4cc(Cl)ccc43)cccc2cn1 [A-1165442] | unable to cause hyperthermia | – | – | –
2 | CC(C)(C)c1ccc2c(c1)CC[C@H]2NC(=O)Nc1cccc2[nH]ncc12 [ABT 102] | able to cause hyperthermia | able to cause hyperthermia | dose dependently reverse anesthesia-induced hypothermia | ability to cause hyperthermia (TRPV1 [1]; listed as ABT): cause hyperthermia in unanesthetized rats
3 | CC(=O)Nc1nc2c(Oc3cc(-c4ccc(C(F)(F)F)cc4)ncn3)cccc2s1 [AMG 517] | able to cause hyperthermia | able to cause hyperthermia | – | opioid sparing effect on postsurgical thermal and mechanical hyperalgesia (TRPV1 [4]; rats, preemptive tail vein dose before incision, subcutaneous morphine): opioid sparing effect; reversal of anesthesia-induced hypothermia (rectally-measured core body temperature) (TRPV1 [5]): dose dependently reversed anesthesia-induced hypothermia; reversal of anesthesia-induced hypothermia (core body temperature) (TRPV1 [6]): partially and statistically significantly; hyperthermia in the post-anesthesia period (TRPV1 [7]; 0.1 mg/kg tail vein, 30 minutes after anesthesia, 0.1 mg/kg): does not produce hyperthermia in the post-anesthesia period; also recorded: did not cause hyperthermia even when the animals recovered from anesthesia; development of hypothermia during anesthesia (core body temperature) (TRPV1 [7]; isoflurane 45 min, 0.1 mg/kg tail vein injection): never developed hypothermia throughout the anesthesia period; hyperthermia under ketamine anesthesia (TRPV1 [8]): without causing hyperthermia at all time points tested; reversal of ketamine-induced hypothermia (core body temperature) (TRPV1 [8]; 20 minutes post ketamine): dose dependently and statistically significantly
4 | CC(C)(C)c1ccc(/C=C/C(=O)Nc2ccc3c(c2)OCCO3)cc1 [AMG 9810] | able to cause hyperthermia | able to cause hyperthermia | dose dependently reverse anesthesia-induced hypothermia | ability to cause hyperthermia (TRPV1 [1]; listed as AMG): cause hyperthermia in unanesthetized rats
5 | COc1cccc(NC(=O)/C=C/c2ccc(Cl)cc2)c1 [SB366791] | unable to cause hyperthermia | – | dose dependently reverse anesthesia-induced hypothermia | ability to cause hyperthermia (TRPV1 [1]; listed as SB): cause hyperthermia in unanesthetized rats
6 | Oc1cc2c(cc1O)CN(C(=S)NCCc1ccc(Cl)cc1)CCC2 [capsazepine] | unable to cause hyperthermia; also recorded: don't | – | able to prevent anesthesia-induced hypothermia; also recorded: dose dependently reverse anesthesia-induced hypothermia | –
7 | CN1CC[C@]23c4c5ccc(O)c4O[C@H]2[C@@H](O)C=C[C@H]3[C@H]1C5 [morphine] | – | – | – | morphine analgesic effect on postsurgical thermal and mechanical hyperalgesia (TRPV1 [4]; animals that received preemptive TRPV1 antagonist treatment before the surgical insult): analgesic effect at much lower doses of 0.3 and 0.6 mg/kg; morphine analgesic effect on postsurgical thermal and mechanical hyperalgesia (TRPV1 [4]; vehicle treated animals): not responsive to morphine until the dose of morphine was raised to 1 mg/kg
